Source: patent publication US8133471B2, “CLK-peptide and SLK-peptide” (New York University, priority 2003, dated 2012)

What was measured:
[1] = tested on: Metastatic B16 murine melanoma cells; assay: B16 melanoma cell adhesion to native or denatured collagen type-IV (Example 3); format: cell-based
Excerpt: FIG. 2 is a chart which illustrates B16 murine melanoma cell adhesion to untreated denatured collagen type-IV (NT), CLK-peptide treated denatured collagen type-IV, and SHR-peptide treated denatured collagen type-IV.
Non-tissue culture treated 48-well plates were coated with either native (triple helical) or denatured collagen type-IV. Metastatic B16 murine melanoma cells were allowed to attach to the coated wells in the presence or absence of either CLK or SHR (control) peptide. CLK-peptide blockade of B16 cell adhesion to denatured type-IV collagen exceeded 95% (FIG. 2). CLK-peptide had little effect on B16 melanoma cell adhesion to native collagen type-IV.

p21CIP1 = p21CIP1 expression by Western blot in M21 cells; format: cell-based, human; conditions: 100 μg/ml
Description: FIG. 12 Inhibition of Cellular Interactions by CLK-Peptide Enhances Expression of P21CIP1 in Human Melanoma (M21) Cells. Non-tissue culture treated 96-well plates were coated with denatured collagen type-IV (10 μg/ml). Human melanoma cells (M21) were allowed to proliferate in the presence or absence of CLK-Peptide or control peptide CTW (100 μg/ml) over a 3-day time course. Cells were then allowed to incubate for 12 hours in 1% serum-containing medium. Expression of P21 CIP1 and actin control were evaluated by Western blotting.
To examine whether the cryptic epitope recognized by CLK-peptide plays a role in cellular proliferation, in vitro proliferations assays were carried out (FIG. 13). In addition, the effects of CLK-peptide on expression of the CDK inhibitor p21^CIP1 were examined by Western blotting methods (FIG. 12). Non-tissue culture treated microtiter wells were coated with denatured collagen type-IV. Human M21 melanoma cells were resuspended in 1% RPMI in the presence or absence of CLK or control CTW-peptide (100 μg/ml). Proliferation was monitored by measuring the relative levels of mitochondrial dehydrogenase using a commercially available (WST-I) proliferation kit (Chemicon).

GL261 tumor cells [2] = assay: GL261 cell migration, CLK-peptide combined with ionizing radiation (Example 22); format: cell-based, murine; conditions: 50 μg/ml + 5.0 Gy; 6 hours; versus controls
Description: The effects, of combining CLK-peptide with radiation therapy, on invasive tumor cell migration are examined. GL261 cells are resuspended in migration buffer in the presence or absence of CLK-peptide or control (50 μg/ml). The cells are added to the coated wells and allowed to incubate for 1 hour, and either left untreated or irradiated with a single fraction dose of ionizing radiation (5.0 Gy). The GL261 tumor cells are allowed to migrate for 6 hours. Tumor cells that have migrated to the underside of the coated membranes are quantified by staining with crystal violet, and the optical densities of cell-associated dye are measured with a microplate reader at a wavelength of 600 nm. CLK-peptide in combination with ionizing radiation is found to inhibit GL261 cell migration on denatured collagen type-IV substantially when compared to controls.

[3] = tested on: bFGF-induced angiogenesis in chick chorioallantoic membrane (CAM); assay: bFGF-induced angiogenesis in the chick CAM model; format: in vivo
Excerpt: FIG. 3A, FIG. 3B, and FIG. 3C depict a chick chorioallantoic membrane (CAM) without bFGF-induced angiogenesis, a CAM following bFGF-induced angiogenesis, and a CAM treated with CLK-peptide after bFGF-induced angiogenesis, respectively.
FIG. 4 is a chart which illustrates quantification of CAM angiogenic blood vessels following bFGF-induced angiogenesis without subsequent CLK-peptide treatment and CAM angiogenic blood vessels following bFGF-induced angiogenesis with subsequent CLK-peptide treatment.
Angiogenesis was induced within the chorioallantoic membrane (CAM) of 10-day old chick embryos with bFGF. Twenty-four hours later, 8-10 of the embryos were treated with a single intravenous injection of CLK-peptide (100 ug/embryo). At the end of a 3-day incubation period, the CAM tissues were removed for analysis. […] (FIGS. 3 (a),(b),(c)) The single injection of CLK-peptide inhibited bFGF by greater than 95%. […] Eight to ten chick embryos were tested in each of the two groups, and the experiment was repeated three times for a total of 24-30 chick embryos tested.

[4] = tested on: Human melanoma cells (M21); assay: M21 cell adhesion to denatured or native collagen type-IV or fibronectin (Example 9); format: cell-based
Description: Non-tissue culture treated 48-well plates were coated with denatured collagen type-IV at 10 μg/ml. […] Cell adhesion was quantified by measuring the O.D. of eluted dye at 600 nm. Data bars represent the mean O.D.±standard deviation from triplicate wells. Assays were completed 2 to 3 times with similar results.
Non-tissue culture treated 48-well plates were coated with native collagen type-IV or fibronectin at 10 μg/ml. Human melanoma cells (M21) were allowed to attach to the coated wells in the presence or absence of CLK-Peptide or control peptide CTW at 0-100 μg/ml. Cell adhesion was quantified by measuring the O.D. of eluted dye at 600 nm. Data bars represent the mean O.D.±standard deviation from triplicate wells. Assays were completed 2 to 3 times with similar results. A. Adhesion to native collagen type-IV. B. Adhesion to Fibronectin.
Adhesion assays were performed to study the effects of CLK-peptide on tumor cell adhesion in vitro. Microtiter wells were coated with either native collagen type-IV or the control ECM protein fibronectin. Malignant melanoma cells (M21) were allowed to bind to the coated substrates in the presence or absence of CLK peptide or a control peptide, CTW.

GL261 tumor cells [5] = assay: GL261 cell migration on denatured collagen type-IV (transwell); format: cell-based, murine; conditions: 50 μg/ml; 6 hours; versus controls
Description: FIG. 22 Effects of CLK-Peptide on Tumor Cell Migration. In cell migration assays, CLK-peptide (50 μg/ml) inhibited GL261 cell migration on denatured collagen type-IV by approximately 50% as compared to control.
The effects of CLK-peptide on invasive tumor cell migration and proliferation in vitro were examined. Membranes from transwell chambers and microtiter wells (in proliferation assays) were coated with denatured collagen type-IV (10 μg/ml). GL261 cells were resuspended in either migration buffer or proliferation buffer in the presence or absence of CLK-peptide or control (50 μg/ml). In the cell migration experiments, GL261 tumor cells were allowed to migrate for 6 hours. Tumor cells that had migrated to the underside of the coated membranes were quantified by staining with crystal violet, and the optical densities of cell-associated dye were measured with a microplate reader at a wavelength of 600 nm.

H-CLKQNGGNFSLG-OH [CLK-peptide, NH2-C-L-K-Q-N-G-G-N-F-S-L-G-COOH]
blockade of B16 cell adhesion to denatured type-IV collagen ([1]; wells coated with denatured collagen type-IV): exceeded 95% | effect on B16 melanoma cell adhesion to native collagen type-IV ([1]; wells coated with native (triple helical) collagen type-IV): little effect | expression of the CDK inhibitor p21CIP1 (p21CIP1): up-regulated | inhibition of GL261 cell migration on denatured collagen type-IV in combination with ionizing radiation (GL261 tumor cells [2]): substantially | adverse effects following injection ([3]; chick embryos, 100 ug/embryo intravenous): No adverse effects | number of branching vessels within the area of the filter disc ([3]; single intravenous injection 100 ug/embryo): dramatic reduction | inhibition of bFGF (induced angiogenesis) ([3]; single intravenous injection 100 ug/embryo, 3-day incubation): greater than 95% | effect on M21 cell adhesion to fibronectin ([4]; 0-100 μg/ml): Neither CLK-Peptide nor the control peptide had any effect | effect on M21 cell adhesion to native triple helical collagen type-IV ([4]; 0-100 μg/ml): Neither CLK-Peptide nor the control peptide had any effect | maximal inhibition of M21 cell attachment to denatured collagen type-IV ([4]; at 100 μg/ml): approximately 65% | inhibition of GL261 cell migration on denatured collagen type-IV (GL261 tumor cells [5]): approximately 50%
